BindingDB's records for doi:10.1021/jm050292k (Maxim Pharmaceuticals, 2005)

Legend:
[1] = Caspase-3 activation activity tested in DLD1 colon cells done for 24 or 48 hr at 37 degree C
[2] = Caspase-3 activation activity tested in T47D breast cells done for 24 or 48 hr at 37 degree C
[3] = Caspase-3 activation activity tested in H1299 lung cancer cells done for 24 or 48 hr at 37 degree C
[4] = Caspase-3 activation activity tested in […] cancer cells done for 24 or 48 hr at 37 degree C
[5] = Caspase-3 activation activity tested in HT-29 cancer cells done for 24 or 48 hr at 37 degree C
[6] = Caspase-3 activation activity tested in LnCap cancer cells done for 24 or 48 hr at 37 degree C
[7] = Caspase-3 activation activity tested in ZR-75-1 cancer cells done for 24 or 48 hr at 37 degree C
[8] = Caspase activation activity of compound in cell line H-1299 nonsmall-cell lung cancer cells

SMILES	EC50 [1] [µM]	EC50 [2] [µM]	EC50 [3] [µM]	EC50 [4] [µM]	EC50 [5] [µM]	EC50 [6] [µM]	EC50 [7] [µM]	EC50 [8] [µM]
FC(F)(F)c1ccc(-c2noc(-c3ccccc3Cl)n2)cc1 [5-(2-Chloro-phenyl)-3-(4-trifluoromethyl-phenyl)-[1,2,4]oxadiazole]		> 40	> 40					
Clc1ccc(-c2noc(-c3occc3Br)n2)cc1 [5-(3-Bromo-furan-2-yl)-3-(4-chloro-phenyl)-[1,2,4]oxadiazole]	0.83	1.08	> 10					
FC(F)(F)c1ccc(-c2noc(-c3occc3Br)n2)nc1 [2-[5-(3-Bromo-furan-2-yl)-[1,2,4]oxadiazol-3-yl]-5-trifluoromethyl-pyridine]	0.7	0.61	> 10					
FC(F)(F)c1ccc(-c2noc(-c3sccc3Cl)n2)nc1 [2-[5-(3-Chloro-thiophen-2-yl)-[1,2,4]oxadiazol-3-yl]-5-trifluoromethyl-pyridine]	0.41	1.44	> 10					
Clc1ccc(-c2noc(-c3occc3Br)n2)nc1 [2-[5-(3-Bromo-furan-2-yl)-[1,2,4]oxadiazol-3-yl]-5-chloro-pyridine]	0.84	1.61	> 10					
Clc1ccc(-c2noc(-c3cccs3)n2)cc1 [3-(4-Chloro-phenyl)-5-thiophen-2-yl-[1,2,4]oxadiazole]	> 10	> 40	> 40					
Clc1ccc(-c2noc(-c3sccc3Cl)n2)cc1 [3-(4-Chloro-phenyl)-5-(3-chloro-thiophen-2-yl)-[1,2,4]oxadiazole]	0.79	1.77	> 40					
Clc1ccc(-c2noc(-c3ccco3)n2)cc1 [3-(4-Chloro-phenyl)-5-furan-2-yl-[1,2,4]oxadiazole]	> 10	17.4	> 40					
Clc1ccc(-c2noc(-c3ccccc3Cl)n2)cc1 [5-(2-Chloro-phenyl)-3-(4-chloro-phenyl)-[1,2,4]oxadiazole]		> 40	> 40					
Cc1csc(-c2nc(-c3ccc(Cl)cc3)no2)c1Cl [5-(3-Chloro-4-methyl-thiophen-2-yl)-3-(4-chloro-phenyl)-[1,2,4]oxadiazole]	> 10	> 40	> 40					
Clc1ccc(-c2noc(-c3sccc3Br)n2)cc1 [5-(3-Bromo-thiophen-2-yl)-3-(4-chloro-phenyl)-[1,2,4]oxadiazole]	1.32	3.32	> 10					
CCOc1ccsc1-c1nc(-c2ccc(Cl)cc2)no1 [3-(4-Chloro-phenyl)-5-(3-ethoxy-thiophen-2-yl)-[1,2,4]oxadiazole]	> 10	> 40	> 40					
FC(F)(F)c1ccc(-c2noc(-c3occc3Br)n2)cc1 [5-(3-Bromo-furan-2-yl)-3-(4-trifluoromethyl-phenyl)-[1,2,4]oxadiazole]	1.07	2.01	> 10					
Clc1ccc(-c2noc(-c3sccc3Cl)n2)cn1 [2-Chloro-5-[5-(3-chloro-thiophen-2-yl)-[1,2,4]oxadiazol-3-yl]-pyridine]	0.29	0.75	> 10					
Cc1cc(Cl)ccc1-c1noc(-c2sccc2Cl)n1 [3-(4-chloro-2-methylphenyl)-5-(3-chlorothiophen-2-yl)-1,2,4-oxadiazole]	0.38	0.91	> 40					

Second part, the molecule after the results:

EC50 [1] [µM]	EC50 [2] [µM]	EC50 [3] [µM]	EC50 [4] [µM]	EC50 [5] [µM]	EC50 [6] [µM]	EC50 [7] [µM]	EC50 [8] [µM]	SMILES
1.49	1.74	> 10						Clc1ccc(-c2noc(-c3occc3Cl)n2)cc1 [5-(3-Chloro-furan-2-yl)-3-(4-chloro-phenyl)-[1,2,4]oxadiazole]
0.43	0.89	> 10						FC(F)(F)Oc1ccc(-c2noc(-c3sccc3Cl)n2)cc1 [5-(3-Chloro-thiophen-2-yl)-3-(4-trifluoromethoxy-phenyl)-[1,2,4]oxadiazole]
0.76	2.82	> 40						Clc1ccsc1-c1nc(-c2ccccc2)no1 [5-(3-Chloro-thiophen-2-yl)-3-phenyl-[1,2,4]oxadiazole]
1.45	4.17	> 10						COc1ccc(-c2noc(-c3sccc3Cl)n2)cc1 [5-(3-Chloro-thiophen-2-yl)-3-(4-methoxy-phenyl)-[1,2,4]oxadiazole]
0.48	0.52	> 10						FC(F)(F)c1ccc(-c2noc(-c3occc3Cl)n2)cc1 [5-(3-Chloro-furan-2-yl)-3-(4-trifluoromethyl-phenyl)-[1,2,4]oxadiazole]
0.37	1.41	> 10						Clc1ccc(-c2noc(-c3sccc3Cl)n2)cc1Cl [5-(3-chlorothiophen-2-yl)-3-(3,4-dichlorophenyl)-1,2,4-oxadiazole]
0.28	0.9	> 10						FC(F)(F)c1cccc(-c2noc(-c3sccc3Cl)n2)c1 [5-(3-Chloro-thiophen-2-yl)-3-(3-trifluoromethyl-phenyl)-[1,2,4]oxadiazole]
0.44	1.21	> 40	> 10	0.76	> 10	3.34		FC(F)(F)c1ccc(-c2noc(-c3sccc3Cl)n2)cc1 [5-(3-Chloro-thiophen-2-yl)-3-(4-trifluoromethyl-phenyl)-[1,2,4]oxadiazole]
0.56	0.93	> 10						FC(F)(F)c1cc(-c2noc(-c3sccc3Cl)n2)ccc1Cl [5-(3-Chloro-thiophen-2-yl)-3-(4-chloro-3-trifluoromethyl-phenyl)-[1,2,4]oxadiazole]
0.58	1.11						> 10	Clc1ccc(-c2noc(-c3occc3Cl)n2)nc1 [5-Chloro-2-[5-(3-chloro-furan-2-yl)-[1,2,4]oxadiazol-3-yl]-pyridine]
> 10	> 40	> 40						CN(C)c1ccc(-c2noc(-c3sccc3Cl)n2)cc1 [{4-[5-(3-Chloro-thiophen-2-yl)-[1,2,4]oxadiazol-3-yl]-phenyl}-dimethyl-amine]
0.39	1.59	> 40						Clc1ccc(-c2noc(-c3sccc3Cl)n2)nc1 [5-Chloro-2-[5-(3-chloro-thiophen-2-yl)-[1,2,4]oxadiazol-3-yl]-pyridine]
1.42	3.66	> 10						Cc1ccc(-c2noc(-c3sccc3Cl)n2)cc1 [5-(3-Chloro-thiophen-2-yl)-3-p-tolyl-[1,2,4]oxadiazole]
0.24	0.92	> 10						FC(F)(F)c1ccc(-c2noc(-c3sccc3Cl)n2)cn1 [5-[5-(3-Chloro-thiophen-2-yl)-[1,2,4]oxadiazol-3-yl]-2-trifluoromethyl-pyridine]
> 10	> 40	> 40						Cc1ccc(-c2noc(-c3cccs3)n2)cc1 [5-Thiophen-2-yl-3-p-tolyl-[1,2,4]oxadiazole]
	1.97	> 40						O=[N+]([O-])c1ccc(-c2noc(-c3occc3Cl)n2)cc1 [5-(3-Chloro-furan-2-yl)-3-(4-nitro-phenyl)-[1,2,4]oxadiazole]
